Measurements taken from patent US20210024545A1, “SUBSTITUTED DIAZAHETERO-BICYCLIC COMPOUNDS AND THEIR USE” (Bayer Aktiengesellschaft, priority 2016, published 2021).

What was measured:
Assay type in all cases: cell-based
human TASK-3 [1] = target: T1, human TASK-3 (Homo sapiens, UniProt Q9NPC2); test: Inhibition of recombinant TASK-3 in stably transfected CHO cells, KCl-induced depolarization, voltage-sensitive dye (B-2); set-up: expressed in transfected cells; host or cells: stably transfected CHO cells; details: depolarization induced by 40 mM potassium chloride, some mean values from multiple determinations
T1 sequence (Q9NPC2 whole entry): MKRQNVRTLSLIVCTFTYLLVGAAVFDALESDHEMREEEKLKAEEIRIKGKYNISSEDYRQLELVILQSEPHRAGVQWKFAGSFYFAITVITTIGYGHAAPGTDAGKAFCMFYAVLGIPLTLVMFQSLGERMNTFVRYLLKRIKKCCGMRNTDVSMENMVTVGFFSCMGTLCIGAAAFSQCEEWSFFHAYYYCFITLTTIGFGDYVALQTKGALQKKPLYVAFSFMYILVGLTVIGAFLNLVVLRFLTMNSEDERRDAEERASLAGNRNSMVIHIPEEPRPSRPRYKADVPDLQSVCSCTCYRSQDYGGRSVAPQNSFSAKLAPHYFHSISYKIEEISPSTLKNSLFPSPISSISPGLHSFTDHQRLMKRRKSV
Method in brief: (§1)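 Stably transfected CHO cells loaded with a voltage-sensitive membrane potential dye. Depolarization was induced with 40 mM KCl, and compound inhibition of it was read by fluorescence. IC50 is the concentration blocking half of the KCl-induced depolarization; some values are means of multiple independent determinations.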

human TASK-1 [2] = target: T2, human TASK-1 (Homo sapiens, UniProt O14649); test: Inhibition of recombinant TASK-1 in stably transfected CHO cells, KCl-induced depolarization, voltage-sensitive dye (B-2); set-up: expressed in transfected cells; host or cells: stably transfected CHO cells; details: depolarization induced by 40 mM potassium chloride, some mean values from multiple determinations
T2 sequence (O14649 whole entry): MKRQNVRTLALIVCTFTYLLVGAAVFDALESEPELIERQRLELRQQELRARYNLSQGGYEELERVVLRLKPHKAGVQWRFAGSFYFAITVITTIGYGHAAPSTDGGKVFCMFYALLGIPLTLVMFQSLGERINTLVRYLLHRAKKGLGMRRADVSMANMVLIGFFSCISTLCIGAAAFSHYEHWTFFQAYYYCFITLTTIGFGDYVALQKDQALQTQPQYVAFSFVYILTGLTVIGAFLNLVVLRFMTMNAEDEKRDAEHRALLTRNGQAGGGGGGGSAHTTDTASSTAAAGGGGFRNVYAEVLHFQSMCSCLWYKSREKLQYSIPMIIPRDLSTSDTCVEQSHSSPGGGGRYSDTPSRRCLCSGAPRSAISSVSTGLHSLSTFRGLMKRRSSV
Method in brief: as §1

human TASK-1 [3] = target: T2, human TASK-1; test: Washout rate after binding to the human TASK-1 channel, two-electrode voltage clamp in Xenopus laevis oocytes (B-4); set-up: expressed in transfected cells; host or cells: Xenopus laevis oocytes injected with cRNA transcribed from the pSGEM vector; details: TASK-1 inhibited beforehand by about 40% at the concentration of Table 3 (30-80 nM); restoration of current recorded over at least one hour
Description: The washout rate is defined as the washout of a compound according to the invention from the TASK-1 channel in % h^−1, measured by means of electrophysiological analysis on TASK-1-expressing Xenopus laevis oocytes via the two-electrode voltage clamp technique according to the description in section B-4.
B-4. In Vitro Electrophysiological Analysis of the Washout Rate of Compounds After Binding to the Human TASK-1 Channel via Two-Electrode Voltage Clamp Technique in Xenopus laevis Oocytes
Xenopus laevis oocytes were obtained from animals that had been anaesthetized with tricaine. Ovaries were treated with collagenase (1 mg/ml, Worthington, type II), stored in OR2 solution (82.5 mM NaCl, 2 mM KC1, 1 mM MgCl2, 5 mM HEPES; pH 7.4) for 120 min and then kept in the ND96 standard solution (96 mM NaCl, 2 mM KC1, 1.8 mM CaCl2, 1 mM MgCl2, 5 mM HEPES; pH 7.5) with additional sodium pyruvate (275 mg/l), theophylline (90 mg/1) and gentamicin (50 mg/1) at 18° C. hTASK-1 and hTASK-3 were subcloned into the pSGEM vector, and cRNA was produced after linearization with NHEI and in vitro transcription with T7 polymerase. Oocytes were injected individually with 5-20 ng of cRNA solution that encodes hTASK-1. Standard two-electrode voltage clamp recordings [Stühmer, Methods Enzymol. 207, 319-339 (1992)] were conducted at room temperature (21-22° C.) with a Turbo-TEC-10CD amplifier (NPI) as described above [Decher et al., FEBS Lett. 492, 84-89 (2001)]. The measurement interval was 2 kHz, and the data were filtered at 0.4 kHz. Substances were applied in a gravity-driven manner via the bath solution, using ND96. In summary, Xenopus laevis oocytes were selected as described above, injected with TASK-1 cRNA and subjected to an electrophysiological analysis via the two-electrode voltage clamp technique.
The TASK-1 channels were inhibited beforehand by a value of about 40% by administration of one of the compounds of the invention. The concentrations shown in Table 3 below were established here, which had been ascertained beforehand by determining the IC50 values in question. Subsequently, the restoration of the TASK-1-related membrane current was recorded in the voltage clamp over at least one hour. This restoration is caused by the washout of the compound in question from the TASK-1 channel
At least 6 oocytes were examined for every compound. The voltage clamp measurements took a total of at least 1.5 hours (administration of the inhibitor plus at least one subsequent hour of washout measurement).

human TASK-1 [4] = target: T2, human TASK-1; test: Two-electrode voltage clamp analysis of human TASK-1 channel in Xenopus laevis oocytes (B-1); set-up: expressed in transfected cells; host or cells: Xenopus laevis oocytes injected with cRNA; details: Xenopus laevis oocytes injected with TASK-1 cRNA, 21-22° C.
Procedure: (§2) B-1. In Vitro Electrophysiological Analysis of the Human TASK-1 and TASK-3 Channels via Two-Electrode Voltage Clamp Technique in Xenopus laevis Oocytes
(§3) Xenopus laevis oocytes were selected as described elsewhere by way of illustration [Decher et al., FEBS Lett. 492, 84-89 (2001)]. Subsequently, the oocytes were injected with 0.5-5 ng of a cRNA solution coding for TASK-1 or TASK-3. For the electrophysiological analysis of the channel proteins expressed in the oocytes, the two-electrode voltage clamp technique [Stühmer, Methods Enzymol. 207, 319-339 (1992)] was used. The measurements were conducted as described [Decher et al., FEBS Lett. 492, 84-89 (2001)] at room temperature (21-22° C.) using a Turbo TEC 10CD amplifier (NPI), recorded at 2 kHz and filtered with 0.4 kHz. Substance administration was performed using a gravitation-driven perfusion system. Here, the oocyte is located in a measuring chamber and exposed to the solution stream of 10 ml/min The level in the measuring chamber is monitored and regulated by sucking off the solution using a peristaltic pump.

human TASK-3 [5] = target: T1, human TASK-3; test: Two-electrode voltage clamp analysis of human TASK-3 channel in Xenopus laevis oocytes (B-1); set-up: expressed in transfected cells; host or cells: Xenopus laevis oocytes injected with cRNA; details: Xenopus laevis oocytes injected with TASK-3 cRNA, 21-22° C.
Procedure: as §2, §3

Structure (SMILES) | IC50 (human TASK-3 [1]) | IC50 (human TASK-1 [2]) | Washout rate (human TASK-1 [3]) | IC50 (human TASK-1 [4]) | IC50 (human TASK-3 [5])
COc1cccc(C(=O)N2C3CCC2CN(Cc2c(-c4ccc(Cl)cn4)nc4ccccn24)C3)n1 [Example 33, (3-{[2-(5-Chloropyridin-2-yl)imidazo[1,2-a]pyridin-3-yl]methyl}-3,8-diazabicyclo[3.2.1]oct-8-yl)(6-methoxypyridin-2-yl)methanone] | 26 nM | 140 nM | 55 % h^−1 |  | 
COc1cccc(C(=O)N2C[C@@H]3CC[C@H]2CN3Cc2c(-c3ccc(Cl)cc3)nc3ccccn23)n1 (single isomer, unassigned; enantiomer 1) [Example 21] | 60 nM | 240 nM | 40 % h^−1 | 27.3 ± 5.4 nM | 16.3 ± 0.9 nM
COc1cccc(C(=O)N2CC3CCC2CN3Cc2c(-c3ccc(Cl)cn3)nc3ccccn23)n1 (single isomer, unassigned; enantiomer 1) [Example 26, (−)-(5-{[2-(5-Chloropyridin-2-yl)imidazo[1,2-a]pyridin-3-yl]methyl}-2,5-diazabicyclo[2.2.2]oct-2-yl)(6-methoxypyridin-2-yl)methanone (enantiomer 1)] | 42 nM | 690 nM | 17 % h^−1 | 54 ± 16.1 nM | 12 ± 3.3 nM
COc1cccc(C(=O)N2C3COCC2CN(Cc2c(-c4ccc(Cl)cc4)nc4ccccn24)C3)n1 [Example 29, (7-{[2-(4-Chlorophenyl)imidazo[1,2-a]pyridin-3-yl]methyl}-3-oxa-7,9-diazabicyclo[3.3.1]non-9-yl)(6-methoxypyridin-2-yl)methanone] | 50 nM | 460 nM | 17 % h^−1 |  | 
